Data as given in patent US11180496B2 (Daewoong Pharmaceutical Co., Ltd., priority 2017, dated 2021).

Key:
ITK = target: T1, ITK (Homo sapiens, UniProt Q08881); experiment: ITK inhibitory activity, ADP-Glo + ITK Kinase enzyme system kit (Promega); type: biochemical; settings: ITK enzyme 0.4 ng/uL, ATP 25 uM, 15 min preincubation, luminescence, duplicate
T1 construct: purchased Promega
T1 sequence (Q08881 1-620): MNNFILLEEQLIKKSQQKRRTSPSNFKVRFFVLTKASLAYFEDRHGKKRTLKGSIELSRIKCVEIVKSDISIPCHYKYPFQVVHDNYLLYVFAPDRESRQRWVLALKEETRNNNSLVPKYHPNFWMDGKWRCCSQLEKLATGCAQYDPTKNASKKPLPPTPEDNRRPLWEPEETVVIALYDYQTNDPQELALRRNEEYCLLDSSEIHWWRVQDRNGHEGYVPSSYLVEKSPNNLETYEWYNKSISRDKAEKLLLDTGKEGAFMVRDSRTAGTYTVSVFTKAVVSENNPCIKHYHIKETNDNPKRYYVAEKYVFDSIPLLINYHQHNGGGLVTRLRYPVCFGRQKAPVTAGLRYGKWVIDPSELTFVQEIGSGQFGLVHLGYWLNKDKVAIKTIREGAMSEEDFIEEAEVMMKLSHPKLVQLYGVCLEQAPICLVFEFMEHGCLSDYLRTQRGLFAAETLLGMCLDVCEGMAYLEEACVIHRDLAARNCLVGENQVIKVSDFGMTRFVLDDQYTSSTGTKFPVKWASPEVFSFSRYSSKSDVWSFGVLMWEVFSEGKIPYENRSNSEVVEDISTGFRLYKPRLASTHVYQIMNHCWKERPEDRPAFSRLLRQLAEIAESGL
Experimental: (§1) The inhibitory activity against BTK and ITK of the compounds prepared in Examples above were measured as follows.
(§2) The inhibitory activity against ITK was evaluated using ‘ADP-Glo™+ITK Kinase enzyme system’ kit from Promega. […] 5 uL of substrate and 5 uL of ATP prepared at a final concentration of 25 uM were added to all wells of the plate after completion of the reaction, and allowed to react at 30° C. for 1 hour. All wells of the plate after completion of the reaction were treated with 25 uL of ADP-Glo™ reagent and reacted at 30° C. for 40 minutes. Then, 50 uL of the kinase detection buffer was applied to all wells of the plate, and then the light was blocked and reacted at 30° C. for 30 minutes. For the plate for which all reactions were completed, the luminescence was measured and the results were calculated. The evaluation was performed in duplicate. The respective values of negative and positive controls, depending on whether the enzymes were added without treatment of the compound, were determined, and IC50 was calculated based on the values.

BTK = target: T2, BTK (Homo sapiens, UniProt Q06187); experiment: BTK inhibitory activity, ADP-Glo + BTK Kinase enzyme system kit (Promega); type: biochemical; settings: BTK enzyme 1 ng/uL, ATP 10 uM, 15 min preincubation, luminescence, duplicate
T2 construct: purchased Promega
Experimental: as §1
as §2, with “against BTK” for “against ITK”, “using ‘ADP-Glo™+BTK” for “using ‘ADP-Glo™+ITK”, “of 10” for “of 25”

T2 sequence (Q06187 whole entry): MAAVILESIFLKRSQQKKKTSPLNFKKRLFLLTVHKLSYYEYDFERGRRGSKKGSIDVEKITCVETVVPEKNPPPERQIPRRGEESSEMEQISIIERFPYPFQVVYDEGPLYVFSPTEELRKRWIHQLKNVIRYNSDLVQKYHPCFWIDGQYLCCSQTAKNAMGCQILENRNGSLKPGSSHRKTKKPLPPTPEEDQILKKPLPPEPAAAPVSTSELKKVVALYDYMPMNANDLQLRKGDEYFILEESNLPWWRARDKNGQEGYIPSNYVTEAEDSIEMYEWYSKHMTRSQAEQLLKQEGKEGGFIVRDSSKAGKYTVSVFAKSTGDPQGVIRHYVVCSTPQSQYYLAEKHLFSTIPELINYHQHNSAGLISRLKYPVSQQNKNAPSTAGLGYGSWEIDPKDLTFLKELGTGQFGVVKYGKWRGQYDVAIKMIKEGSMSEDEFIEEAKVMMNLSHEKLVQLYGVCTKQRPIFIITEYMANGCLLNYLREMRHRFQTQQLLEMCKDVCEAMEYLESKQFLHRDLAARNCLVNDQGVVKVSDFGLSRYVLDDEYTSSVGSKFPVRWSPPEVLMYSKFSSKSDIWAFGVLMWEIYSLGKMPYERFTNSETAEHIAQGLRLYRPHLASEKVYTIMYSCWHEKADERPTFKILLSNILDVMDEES

SMILES	IC50 (ITK)	IC50 (BTK)
C=CC(=O)N1CCC[C@@H](n2nc(-c3ccc(C(=O)Nc4ccccc4)cc3)c3c(N)ncc(-c4cnn(C)c4)c32)C1 [Example 26, (R)-4-(1-(1-acryloylpiperidin-3-yl)-4-amino-7-(1-methyl-1H-pyrazol-4-yl)-1H-pyrazolo[4,3-c]pyridin-3-yl)-N-phenyl benzamide]	59.3 nM	2.7 nM
C=CC(=O)N1CCC[C@@H](n2nc(-c3ccc(C(=O)Nc4ccccc4)cc3)c3c(N)ncc(CO)c32)C1 [Example 27, (R)-4-(1-(1-acryloylpiperidin-3-yl)-4-amino-7-(hydroxymethyl)-1H-pyrazolo[4,3-c]pyridin-3-yl)-N-phenylbenzamide]	> 500 nM	8 nM
C=CC(=O)N1CCC[C@@H](n2nc(-c3ccc(C(=O)Nc4ccccc4)cc3)c3c(N)ncc(-c4cn[nH]c4)c32)C1 [Example 28, (R)-4-(1-(1-acryloylpiperidin-3-yl)-4-amino-7-(1H-pyrazol-4-yl)-1H-pyrazolo[4,3-c]pyridin-3-yl)-N-phenylbenzamide]	181 nM	4.4 nM
C=CC(=O)N1CCC[C@@H](n2nc(-c3ccc(C(=O)Nc4ccccc4)cc3)c3c(N)ncc(-c4cc[nH]n4)c32)C1 [Example 29, (R)-4-(1-(1-acryloylpiperidin-3-yl)-4-amino-7-(1H-pyrazol-3-yl)-1H-pyrazolo[4,3-c]pyridin-3-yl)-N-phenylbenzamide]	556 nM	3.1 nM
C=CC(=O)N1CCC[C@@H](n2nc(-c3ccc(C(=O)Nc4ccccc4)cc3)c3c(N)ncc(-c4cc[nH]n4)c32)C1 [Example 30, (R)-4-(1-(1-acryloylpiperidin-3-yl)-4-amino-7-(1H-pyrazol-5-yl)-1H-pyrazolo[4,3-c]pyridin-3-yl)-N-phenylbenzamide]	490 nM	3 nM
C=CC(=O)N1CCC[C@@H](n2nc(-c3ccc(C(=O)Nc4ccccc4)cc3)c3c(N)ncc(-c4ccsc4)c32)C1 [Example 31, (R)-4-(1-(1-acryloylpiperidin-3-yl)-4-amino-7-(thiophen-3-yl)-1H-pyrazolo[4,3-c]pyridin-3-yl)-N-phenylbenzamide]	376 nM	15.9 nM
C=CC(=O)N1CCC[C@@H](n2nc(-c3ccc(C(=O)Nc4ccccc4)cc3)c3c(N)ncc(-c4cnc(C)s4)c32)C1 [Example 32, (R)-4-(1-(1-acryloylpiperidin-3-yl)-4-amino-7-(2-methylthiazol-5-yl)-1H-pyrazolo[4,3-c]pyridin-3-yl)-N-phenylbenzamide]	200 nM	6.2 nM
C=CC(=O)N1CCC[C@@H](n2nc(-c3ccc(C(=O)Nc4ccccc4)cc3)c3c(N)ncc(-c4cnn(C(F)F)c4)c32)C1 [Example 33, (R)-4-(1-(1-acryloylpiperidin-3-yl)-4-amino-7-(1-(difluoromethyl)-1H-pyrazol-4-yl)-1H-pyrazolo[4,3-c]pyridin-3-yl)-N-phenylbenzamide]	307 nM	10.2 nM
C=CC(=O)N1CCC[C@@H](n2nc(-c3ccc(C(=O)Nc4ccccc4)cc3)c3c(N)ncc(-c4cnn(C5CCOCC5)c4)c32)C1 [Example 34, (R)-4-(1-(1-acryloylpiperidin-3-yl)-4-amino-7-(1-(tetrahydro-2H-pyran-4-yl)-1H-pyrazol-4-yl)-1H-pyrazolo[4,3-c]pyridin-3-yl)-N-phenylbenzamide]	293 nM	2.3 nM
C=CC(=O)N1CCC[C@@H](n2nc(-c3ccc(C(=O)Nc4ccccc4)cc3)c3c(N)ncc(-c4cnn(C5CCN(C)CC5)c4)c32)C1 [Example 35, (R)-4-(1-(1-acryloylpiperidin-3-yl)-4-amino-7-(1-(1-methylpiperidin-4-yl)-1H-pyrazol-4-yl)-1H-pyrazolo[4,3-c]pyridin-3-yl)-N-phenylbenzamide]	61 nM	1.9 nM
